Values joined by “and” are separate entries in the source; they are usually repeats but may differ in a detail not shown here. Equal values may be shown once.
How the values were obtained:
dengue virus type 2 [1] = assay: Functional immunofluorescence assay to measure dose dependent changes in antiviral-drug inhibitory efficacy against Dengue virus type 2 Thailand/16681/84 in Vero E6/TMPRSS2 cells (cotreated with P-gp inhibitor, Elacridar). Cells are treated with antiviral candidates that are serially diluted, following infection, cells are fixed. EC50 is reported via analysis of immunofluorescence staining. The assay has been performed by Icahn School of Medicine at Mount Sinai.; format: organism-based, Chlorocebus sabaeus, VeroE6/TMPRSS2; details: Dengue virus; for EC90: P-gp concentration 2 uM, P-gp inhibitor Elacidar
Zika virus [2] = assay: EC50 is reported via analysis of immunofluorescence staining. The assay has been performed by Icahn School of Medicine at Mount Sinai.; format: functional, organism-based, Chlorocebus sabaeus, VeroE6/TMPRSS2; details: for EC90: P-gp concentration 2 uM, P-gp inhibitor Elacidar
dengue virus type 2 [3] = assay: Functional assay to measure dose dependent changes in antiviral-drug inhibitory efficacy against Dengue virus type 2 New Guinea C in Vero E6 miRFP670 cells (cotreated with P-gp inhibitor, CP100356). Cells are treated with antiviral candidates that are serially diluted, following infection, cells are fixed. EC50 is reported via analysis of fluorescence intensity using high-content imager. The …; format: organism-based, Chlorocebus sabaeus, Vero C1008; details: Dengue virus; for EC90: P-gp concentration 500 nM, P-gp inhibitor CP100356
Zika virus [4] = assay: Functional CPE-based assay to measure dose dependent changes in antiviral-drug inhibitory efficacy against Zika virus MR766 in Vero E6 miRFP670 cells (cotreated with P-gp inhibitor, CP100356). Cells are treated with antiviral candidates that are serially diluted. EC50 is reported via analysis of MTS assay as a readout of CPE. The assay has been performed by KU Leuven.; format: organism-based, Chlorocebus sabaeus, Vero C1008; details: Zika virus, Vero C1008; for EC90: Baseline response 0 %, Maximum response 100 %, P-gp concentration 500 nM, P-gp inhibitor CP100356

In the case of `N[C@H]1Cc2ccc(NC(=O)c3cc(Cl)cc4[nH]ncc34)cc2C1`, the EC50 (dengue virus type 2 [1]; VeroE6/TMPRSS2) is reported as over 50 µM, the EC90 (dengue virus type 2 [1]; VeroE6/TMPRSS2, Baseline response 0 %, Hill slope -1.504, Maximum measured 137.122 %, Maximum response 100 %, Minimum measured 76.636 %, R squared 0.034) is reported as over 50 µM and the EC50 (Zika virus [2]; Zika virus, VeroE6/TMPRSS2) is reported as 6.4 µM. It also gave an EC90 (Zika virus [2]; Zika virus, VeroE6/TMPRSS2, Baseline response 0 %, Hill slope -0.367, Maximum measured 76.386 %, Maximum response 70 %, Minimum measured 22.981 %, R squared 0.54) of over 50 µM, an EC50 (dengue virus type 2 [3]; Vero C1008) of over 50 µM and an EC90 (dengue virus type 2 [3]; Vero C1008, Baseline response 0 %, Hill slope -0.493, Maximum measured 107.038 %, Maximum response 100 %, Minimum measured 74.642 %, R squared 0.117) of over 50 µM. It also gave an EC50 (Zika virus [4]) of over 50 µM and an EC90 (Zika virus [4]; Hill slope 8.874, Maximum measured 2.747 %, Minimum measured -3.726 %, R squared 0.015) of over 50 µM.

Molecule `Cn1cc2cc(Cl)cc(C(=O)Nc3ccc4c(c3)CNC4)c2n1` has an EC50 (dengue virus type 2 [1]; VeroE6/TMPRSS2) of over 5.56 µM, an EC90 (dengue virus type 2 [1]; VeroE6/TMPRSS2, Maximum measured 98.349 %, Minimum measured 47.733 %) of over 5.56 µM and an EC50 (Zika virus [2]; Zika virus, VeroE6/TMPRSS2) of 0.643 µM. It also gave an EC90 (Zika virus [2]; Zika virus, VeroE6/TMPRSS2, Baseline response 0 %, Hill slope -0.814, Maximum measured 136.159 %, Maximum response 100 %, Minimum measured 33.863 %, R squared 0.555) of over 5.56 µM, an EC50 (dengue virus type 2 [3]; Vero C1008) of 0.704 µM and an EC90 (dengue virus type 2 [3]; Vero C1008, Baseline response 0 %, Hill slope 0.764, Maximum measured 122.857 %, Maximum response 100 %, Minimum measured 34.33 %, R squared 0.405) of under 0.391 µM. For the same molecule, the EC50 (Zika virus [4]) was 0.514 µM and the EC90 (Zika virus [4]; Hill slope 4.196, Maximum measured 85.26 %, Minimum measured 23.993 %, R squared 0.942) was over 0.781 µM.

Work on `NCc1cccc(NC(=O)c2cc(Cl)cc(-n3cccc3)c2)c1` yielded an EC50 (dengue virus type 2 [1]; VeroE6/TMPRSS2) of 13.9 µM, an EC90 (dengue virus type 2 [1]; VeroE6/TMPRSS2, Baseline response 0 %, Hill slope -2.713, Maximum measured 77.83 %, Maximum response 65.791 %, Minimum measured 24.724 %, R squared 0.597) of over 16.7 µM and an EC50 (Zika virus [2]; Zika virus, VeroE6/TMPRSS2) of over 5.56 µM. It also gave an EC90 (Zika virus [2]; Zika virus, VeroE6/TMPRSS2, Maximum measured 124.363 %, Minimum measured 74.851 %) of over 5.56 µM, an EC50 (dengue virus type 2 [3]; Vero C1008) of 14.4 µM and an EC90 (dengue virus type 2 [3]; Vero C1008, Baseline response 0 %, EC90 CI (lower) 7.414 uM, EC90 CI (upper) 19.74 uM, Hill slope -12.44, Maximum measured 108.218 %, Maximum response 100 %, Minimum measured 0.325 %, R squared 0.952) of 17.2 µM.

`CCc1cc(C(=O)Nc2cccc(-c3nnn[nH]3)c2)sc1-c1ccc(Cl)cc1` gave an EC50 (dengue virus type 2 [1]; VeroE6/TMPRSS2) of over 16.7 µM, an EC90 (dengue virus type 2 [1]; VeroE6/TMPRSS2, Baseline response 0 %, Hill slope -0.101, Maximum measured 96.419 %, Maximum response 100 %, Minimum measured 50.045 %, R squared 0.073) of over 16.7 µM and an EC50 (Zika virus [2]; Zika virus, VeroE6/TMPRSS2) of over 16.7 µM. The EC90 (Zika virus [2]; Zika virus, VeroE6/TMPRSS2, Maximum measured 109.494 %, Minimum measured 75.609 %) was over 16.7 µM, the EC50 (dengue virus type 2 [3]; Vero C1008) was over 25 µM and the EC90 (dengue virus type 2 [3]; Vero C1008, Baseline response 0 %, Hill slope 0.831, Maximum measured 164.159 %, Maximum response 100 %, Minimum measured 71.563 %, R squared 0.225) was over 25 µM. It also gave an EC50 (Zika virus [4]) of over 50 µM and an EC90 (Zika virus [4]; Hill slope -0.614, Maximum measured 5.848 %, Minimum measured -4.216 %, R squared 0.418) of over 50 µM.

For `N#CCCNC(=O)[C@H](Nc1ccc2c(c1)CNC2)c1cc(Cl)cc(C2CC2)c1`, the EC50 (dengue virus type 2 [1]; VeroE6/TMPRSS2) was over 50 µM, the EC90 (dengue virus type 2 [1]; VeroE6/TMPRSS2, Maximum measured 184.621 %, Minimum measured 81.605 %) was over 50 µM and the EC90 (Zika virus [2]; Zika virus, VeroE6/TMPRSS2, Maximum measured 63.585 %, Minimum measured 35.457 %) was over 5.56 µM. For the same molecule, the EC90 (Zika virus [2]; Zika virus, VeroE6/TMPRSS2, Baseline response 0 %, Hill slope -0.414, Maximum measured 108.813 %, Maximum response 100 %, Minimum measured 38.683 %, R squared 0.619) was over 16.7 µM, the EC50 (Zika virus [2]; veroe6/tmprss2) was > 5.56 µM and 2.54 µM and the EC50 (dengue virus type 2 [3]; Vero C1008) was over 50 µM. For the same molecule, the EC90 (dengue virus type 2 [3]; Vero C1008, Maximum measured 137.124 %, Minimum measured 107.523 %) was over 50 µM, the EC50 (Zika virus [4]) was 4.22 µM and the EC90 (Zika virus [4]; EC90 CI (lower) 2.191 uM, EC90 CI (upper) 28.402 uM, Hill slope 3.509, Maximum measured 177.981 %, Minimum measured 1.478 %, R squared 0.727) was 7.89 µM.
